{"source": "patent US20220264878A1", "about": "“HERBICIDAL COMPOSITION CONTAINING R-TYPE PYRIDYLOXY CARBOXYLIC ACID DERIVATIVE AND USE THEREOF” (Qingdao Kingagroot Chemical Compound Co., Ltd., priority 2019, published 2022)", "type_in_all_cases": "in vivo", "key": {"[1]": {"system": "Eleusine indica", "assay": "Post-emergence foliage spray, pot culture, fresh weight inhibition (Tables 151-206; 20 days)", "details": "20 days", "how_it_was_run": "(§1)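 Field-collected weeds grown in pots in a greenhouse (20-30° C., natural light, 57-72% RH), 15 per pot, 3 pots × 4 replicates. Single foliar spray at 4-5 leaves (grasses) or 5-6 leaves (broadleaf) with acetone/0.1% Tween-80 dilutions at 450 kg/ha, 0.3 MPa. Above-ground fresh weight inhibition versus solvent blank at 20 days.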"}, "[2]": {"system": "Alopecurus japonicus", "assay": "Post-emergence foliage spray, pot culture, fresh weight inhibition (Tables 151-206; 20 days)", "details": "20 days", "how_it_was_run": "as §1"}, "[3]": {"system": "Sinapis arvensis", "assay": "Post-emergence foliage spray, pot culture, fresh weight inhibition (Tables 151-206; 20 days)", "details": "20 days", "how_it_was_run": "as §1"}, "[4]": {"system": "Digitaria sanguinalis", "assay": "Post-emergence foliage spray, pot culture, fresh weight inhibition (Tables 151-206; 20 days)", "details": "20 days", "how_it_was_run": "as §1"}, "[5]": {"system": "Echinochloa oryzoides", "assay": "Soil sealing treatment, pot culture, fresh weight inhibition (Tables 149, 150)", "experimental": "A method for investigating absolute number was employed, wherein whole seedlings of survival weeds were cut off with a blade along the soil surface, and the fresh weight of the weeds was weighed with an analytical balance. For dead weeds, the fresh weight thereof was zero.\nTheoretical fresh weight inhibition rate of a combination of two active ingredients in each group was calculated by the Gowing method (E0=X+Y−X*Y/100), and then compared with an actually measured inhibition rate (E), thereby effect of the combination (hereafter referred to as combined effect) on weeds was evaluated: the value of E-E0, which was greater than 10%, corresponded to a synergistic effect, the value of E-E0, which was less than −10%, corresponded to an antagonistic effect, and the value of E-E0, which was from −10% to 10%, corresponded to an additional effect. […] Wherein, in the formula, X represented the fresh weight inhibition rate of the active ingredient A in a dosage of P, and Y represented the fresh weight inhibition rate of the active ingredient B in a dosage of Q.\nEchinochloa crusgalli var zelayensis were collected in Huai'an of Jiangsu Province; Echinochloa caudate were collected in Pingluo of Ningxia Province; Echinochloa oryzoides were collected in Qiqiha'er of Heilongjiang Province.\nThe culture was carried out in a controllable sunlight greenhouse at 20 to 30° C., in natural light, and relative humidity of 57% to 72%. […] The test soil was placed quantitatively to ¾ of the pots and then watered from the bottom of the pots to completely wet the soil to saturation. The pretreated test weed seeds were uniformly sowed on the surface, then covered with 0.5-2 cm soil according to the seed size, and ready-for use 24 hours after sowing.\nThe technical materials were all dissolved in acetone, and diluted with an aqueous solution containing 0.1% emulsifier T-80. The dilution is performed as required.\nA ratio of A to the active ingredient B and amounts thereof in each group depends on the characteristics and toxicity of the two agents, as well as the main application purpose of a corresponding formulation. Based on the pre-tests in this study, the dosage of A and the active ingredient B applied alone and in combination were shown in the tables. Water containing the solvent and emulsifier same with the above groups but free of the agents was used as a blank control.\n3 pots with 30 weed seeds per pot were treated in one treatment with 4 replications per treatment.\nThe pots which were sowed and mulched were evenly placed on a platform with an area of 0.5 m^2, and a solution of agents was sprayed on soil surface thereof by the 3WP-2000-type walking spray tower at a dosage of […] and at a spray pressure of 0.3 MPa. After all the solution was sprayed, the valve was closed. After 30 seconds, the door of the spray tower was opened, and the nutritional bowl was taken out. Then the valve was opened, and the spray tube was cleaned by spraying 50 ml of water.\nThis section was same as the section 4) in the post-emergence treatment by performing foliage spray, and was not repeated herein."}, "[6]": {"system": "Capsella bursa-pastoris", "assay": "Post-emergence foliage spray, pot culture, fresh weight inhibition (Tables 151-206; 20 days)", "details": "20 days", "how_it_was_run": "(§2)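 Pre-germinated seeds (25° C soak 6 h, 28° C dark) grown in pots, thinned to 15 per pot; foliage-sprayed at 4~5-leaf (grasses) or 5~6-leaf (broadleaf) stage, 450 kg/ha spray volume, 0.3 MPa. Agents in acetone diluted with 0.1% Tween-80 water; solvent blank control. Above-ground fresh weight weighed, dead weeds scored zero.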"}, "[7]": {"system": "Amaranthus retroflexus", "assay": "Post-emergence foliage spray, pot culture, fresh weight inhibition (Tables 151-206; 20 days)", "details": "20 days", "how_it_was_run": "as §2"}, "[8]": {"system": "Echinochloa oryzoides", "assay": "Post-emergence foliage spray, pot culture, fresh weight inhibition (Tables 1-48, 51-98, 101-148; 24 days)", "how_it_was_run": "(§3)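 Pot-grown weeds were thinned to 15 per pot (45 per treatment) and sprayed on foliage at the 5–6-leaf stage for grasses or the 6–7-leaf stage for broadleaves. Agents were dissolved in acetone with 0.1% Tween-80 and applied at 450 kg/ha spray volume and 0.3 MPa. Plants were then kept in a greenhouse. Above-ground fresh weight of survivors, with dead plants counted as zero, gave inhibition versus a solvent/emulsifier blank.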"}, "[9]": {"system": "Malachium aquaticum", "assay": "Post-emergence foliage spray, pot culture, fresh weight inhibition (Tables 1-48, 51-98, 101-148; 24 days)", "how_it_was_run": "as §3"}, "[10]": {"system": "Galium aparine L.", "assay": "Post-emergence foliage spray, pot culture, fresh weight inhibition (Tables 1-48, 51-98, 101-148; 24 days)", "details": "24 days", "how_it_was_run": "as §3"}, "[11]": {"system": "Stellaria media", "assay": "Post-emergence foliage spray, pot culture, fresh weight inhibition (Tables 1-48, 51-98, 101-148; 24 days)", "details": "Table 105", "how_it_was_run": "as §3"}}}
{"smiles": "C[C@@H](Oc1nc(F)c(Cl)c(N)c1Cl)C(=O)[O-].[K+]", "note": "[Compound A4, A1 potassium salt]", "values": [{"measurement": "Control effect (%) of A applied alone in corresponding dose", "setting": "[1]; A 75 g a.i./ha", "result": 38.5, "unit": "%"}, {"measurement": "Control effect (%) of A applied alone in corresponding dose", "setting": "[1]; A 150 g a.i./ha", "result": 69.2, "unit": "%"}, {"measurement": "Control effect (%) of A applied alone in corresponding dose", "setting": "[2]; A 75 g a.i./ha", "result": 24.9, "unit": "%"}, {"measurement": "Control effect (%) of A applied alone in corresponding dose", "setting": "[2]; A 150 g a.i./ha", "result": 47.2, "unit": "%"}, {"measurement": "Control effect (%) of A applied alone in corresponding dose", "setting": "[3]; A 75 g a.i./ha", "result": 41.1, "unit": "%"}, {"measurement": "Control effect (%) of A applied alone in corresponding dose", "setting": "[3]; A 150 g a.i./ha", "result": 65.9, "unit": "%"}, {"measurement": "Control effect (%) of A applied alone in corresponding dose", "setting": "[4]; A 75 g a.i./ha", "result": 22.2, "unit": "%"}, {"measurement": "Control effect (%) of A applied alone in corresponding dose", "setting": "[4]; A 150 g a.i./ha", "result": 56.4, "unit": "%"}, {"measurement": "Control effect (%) of A applied alone in corresponding dose", "setting": "[5]; A 75 g a.i./ha", "result": 18.9, "unit": "%"}, {"measurement": "Control effect (%) of A applied alone in corresponding dose", "setting": "[5]; A 150 g a.i./ha", "result": 42.5, "unit": "%"}, {"measurement": "Control effect (%) of A applied alone in corresponding dose", "setting": "[6]; A 75 g a.i./ha", "result": 44.2, "unit": "%"}, {"measurement": "Control effect (%) of A applied alone in corresponding dose", "setting": "[6]; A 150 g a.i./ha", "result": 67.2, "unit": "%"}, {"measurement": "Control effect (%) of A applied alone in corresponding dose", "setting": "[7]; A 75 g a.i./ha", "result": 26.7, "unit": "%"}, {"measurement": "Control effect (%) of A applied alone in corresponding dose", "setting": "[7]; A 150 g a.i./ha", "result": 57.2, "unit": "%"}, {"measurement": "Control effect (%) of A applied alone in corresponding dose", "setting": "[8]; A 75 g a.i./ha", "result": 52.6, "unit": "%"}, {"measurement": "Control effect (%) of A applied alone in corresponding dose", "setting": "[8]; A 150 g a.i./ha", "result": 74.7, "unit": "%"}, {"measurement": "Control effect (%) of A applied alone in corresponding dose", "setting": "[8]; Table 101, 75 g a.i./ha", "result": 52.6, "unit": "%"}, {"measurement": "Control effect (%) of A applied alone in corresponding dose", "setting": "[8]; Table 101, 150 g a.i./ha", "result": 74.7, "unit": "%"}, {"measurement": "Control effect (%) of A applied alone in corresponding dose", "setting": "[8]; Table 102, 75 g a.i./ha", "result": 52.6, "unit": "%"}, {"measurement": "Control effect (%) of A applied alone in corresponding dose", "setting": "[8]; Table 102, 150 g a.i./ha", "result": 74.7, "unit": "%"}, {"measurement": "Control effect (%) of A applied alone in corresponding dose", "setting": "[8]; Table 104, 75 g a.i./ha", "result": 52.6, "unit": "%"}, {"measurement": "Control effect (%) of A applied alone in corresponding dose", "setting": "[8]; Table 104, 150 g a.i./ha", "result": 74.7, "unit": "%"}, {"measurement": "Control effect (%) of A applied alone in corresponding dose", "setting": "[8]; Table 106, 75 g a.i./ha", "result": 52.6, "unit": "%"}, {"measurement": "Control effect (%) of A applied alone in corresponding dose", "setting": "[8]; Table 106, 150 g a.i./ha", "result": 74.7, "unit": "%"}, {"measurement": "Control effect (%) of A applied alone in corresponding dose", "setting": "[8]; Table 107, 75 g a.i./ha", "result": 52.6, "unit": "%"}, {"measurement": "Control effect (%) of A applied alone in corresponding dose", "setting": "[8]; Table 107, 150 g a.i./ha", "result": 74.7, "unit": "%"}, {"measurement": "Control effect (%) of A applied alone in corresponding dose", "setting": "[8]; Table 108, 75 g a.i./ha", "result": 52.6, "unit": "%"}, {"measurement": "Control effect (%) of A applied alone in corresponding dose", "setting": "[8]; Table 108, 150 g a.i./ha", "result": 74.7, "unit": "%"}, {"measurement": "Control effect (%) of A applied alone in corresponding dose", "setting": "[8]; Table 109, 75 g a.i./ha", "result": 52.6, "unit": "%"}, {"measurement": "Control effect (%) of A applied alone in corresponding dose", "setting": "[8]; Table 109, 150 g a.i./ha", "result": 74.7, "unit": "%"}, {"measurement": "Control effect (%) of A applied alone in corresponding dose", "setting": "[8]; Table 110, 75 g a.i./ha", "result": 52.6, "unit": "%"}, {"measurement": "Control effect (%) of A applied alone in corresponding dose", "setting": "[8]; Table 110, 150 g a.i./ha", "result": 74.7, "unit": "%"}]}
{"smiles": "COc1ncc(F)c2nc(S(=O)(=O)Nc3c(F)cccc3F)nn12", "note": "[florasulam]", "values": [{"measurement": "Control effect (%) of B applied alone in corresponding dose", "setting": "[9]; florasulam 0.375 g a.i./ha", "result": 3.6, "unit": "%"}, {"measurement": "Control effect (%) of B applied alone in corresponding dose", "setting": "[9]; florasulam 0.75 g a.i./ha", "result": 17.4, "unit": "%"}, {"measurement": "Control effect (%) of B applied alone in corresponding dose", "setting": "[9]; florasulam 1.5 g a.i./ha", "result": 56.4, "unit": "%"}, {"measurement": "Control effect (%) of B applied alone in corresponding dose", "setting": "[9]; florasulam 3.0 g a.i./ha", "result": 77.6, "unit": "%"}, {"measurement": "Control effect (%) of B applied alone in corresponding dose", "setting": "[10]; B 0.375 g a.i/ha", "result": 4.8, "unit": "%"}, {"measurement": "Control effect (%) of B applied alone in corresponding dose", "setting": "[10]; B 0.75 g a.i/ha", "result": 20.6, "unit": "%"}, {"measurement": "Control effect (%) of B applied alone in corresponding dose", "setting": "[10]; B 1.5 g a.i/ha", "result": 56.3, "unit": "%"}, {"measurement": "Control effect (%) of B applied alone in corresponding dose", "setting": "[10]; B 3.0 g a.i/ha", "result": 76.2, "unit": "%"}, {"measurement": "Control effect (%) of B applied alone in corresponding dose", "setting": "[11]; 0.375 g a.i./ha", "result": 6.8, "unit": "%"}, {"measurement": "Control effect (%) of B applied alone in corresponding dose", "setting": "[11]; 0.75 g a.i./ha", "result": 22.3, "unit": "%"}, {"measurement": "Control effect (%) of B applied alone in corresponding dose", "setting": "[11]; 1.5 g a.i./ha", "result": 56.9, "unit": "%"}, {"measurement": "Control effect (%) of B applied alone in corresponding dose", "setting": "[11]; 3.0 g a.i./ha", "result": 76.6, "unit": "%"}]}
